Marks after values point to notes of the source that are not given here.
Assays:
[1] = tested on: arachidonic acid (AA) cascade; experiment: kidney tissue oxylipin/PG levels in LPS induced sepsis in mice;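 also: male C57BL/6N mice challenged with LPS, kidney taken 24 h later, oxylipins quantified by LC-MS after solid-phase extraction of tissue homogenate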
Description: (§1) Twelve week old male C57BL/6N mice (Charles River, Sulzfeld, Germany) were used for all experiments. C57BL/6 male mice (H2^b, 11–13 weeks of age) were obtained from Charles River (Sulzfeld, Germany). Animals were cared for in accordance with the institution’s guidelines for experimental animals and with the guidelines of the American Physiological Society. […] Mice were monitored closely and if they appeared compromised (i.e. inactivity, no intake of food or water) after compound or LPS injection the experiment was terminated.
(§2) Oxylipin levels were analyzed in plasma and tissues by LC-MS following SPE extraction of 200 μl plasma or tissue homogenate (50 mg) on Chromabond C18 ec cartridges (Machery-Nagel, Düren, Germany) [19].
(§3) GraphPad Prism 5.0 (GraphPad Software, San Diego, USA) was used for data analysis, the fitting of dose response curves and calculation of the IC50 values. Statistical differences were determined by Dunnetts test (LPS vs. other groups).

[2] = tested on: arachidonic acid (AA) cascade; experiment: plasma oxylipin/PG levels in LPS induced sepsis in mice; type: in vivo, C57BL/6N mice;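 also: male C57BL/6N mice given LPS, plasma oxylipins quantified by LC-MS after solid-phase extraction, pretreatment or vehicle given intraperitoneally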
Description: as §1, §2, §3

[3] = mice, compound i. p. 100 mg/kg bw 2 h before LPS, 24 h after LPS, vs. LPS group
[4] = mice, compound i. p. 100 mg/kg bw 2 h before LPS (10 mg/kg bw i. p.), 24 h after LPS, vs. LPS group
[5] = plasma 24 h after LPS treatment, LPS +, mean

`Oc1ccc(/C=C/c2cc(O)cc3c2[C@@H](c2cc(O)cc(O)c2)[C@H](c2ccc(O)cc2)O3)cc1` [ε-Viniferin, ε-viniferin] was tested, and the PGF2α ([1]; kidney tissue 24 h after LPS treatment, LPS +, mean, second listing of PGF2α (r9)) was 63 nM, the “kidney 6-keto-PGF1α level” value [1, 3] was “elevated” and the “kidney 8-iPGF2α level” value [1, 3] was “elevated”. The “kidney 13,14-dihydro-15-keto-PGE1 level” value [1, 3] was “elevated”, the “plasma 8-iPF2α level (non-enzymatically formed autoxidation marker)” value [2, 4] was “high levels” and the “plasma 13,14-dihydro-15-keto-PGE1 level” value [2, 4] was “high levels”. The “plasma 13,14-dihydro-15-keto-PGF2α level” value [2, 4] was “high levels”, the “plasma PGF2α level” value [2, 4] was “high levels” and the “1a,1b-dihomo-PGF2α concentration in plasma” value [2, 5] was 0.42^† nM. The “4,5-DiHDPE concentration in plasma” value [2, 5] was 23^‡ nM, the “4-HDHA concentration in plasma” value [2, 5] was 1.7 nM and the “5(6)-EpETrE concentration in plasma” value [2, 5] was 11 nM. The “5,6-DiHETrE concentration in plasma” value [2, 5] was 1.3^‡ nM, the “5-HEPE concentration in plasma” value [2, 5] was 0.25^* nM and the “5-HETE concentration in plasma” value [2, 5] was 2.8 nM. For the same compound, the “5-iPF2α concentration in plasma” value [2, 5] was 0.91^‡ nM, the “5-oxo-ETE concentration in plasma” value [2, 5] was 4.7 nM and the “6-keto-PGF1α concentration in plasma” value [2, 5] was 2.8 nM. The “7,8-DiHDPE concentration in plasma” value [2, 5] was 1.1 nM, the “7-HDHA concentration in plasma” value [2, 5] was 0.55 nM and the “8(9)-EpETrE concentration in plasma” value [2, 5] was 2.5 nM. The “8,9-DiHETrE concentration in plasma” value [2, 5] was 2.5 nM, the “8-HDHA concentration in plasma” value [2, 5] was 3.8 nM and the “8-HEPE concentration in plasma” value [2, 5] was 1.2^† nM. For the same compound, the “8-HETE concentration in plasma” value [2, 5] was 12^* nM, the “8-iPF2a concentration in plasma” value [2, 5] was 0.30^* nM and the “9(10)-EpODE concentration in plasma” value [2, 5] was 6.5 nM. For the same compound, the “9(10)-EpOME concentration in plasma” value [2, 5] was 61 nM, the “9(10)-Epoxystearic acid concentration in plasma” value [2, 5] was 37 nM and the “9,10,13-TriHOME concentration in plasma” value [2, 5] was 2.2 nM. For the same compound, the “9,10-DiHODE concentration in plasma” value [2, 5] was 4.5 nM, the “9,10-DiHOME concentration in plasma” value [2, 5] was 30 nM and the “9,10-Dihydroxystearic acid concentration in plasma” value [2, 5] was 10 nM. The “9,12,13-TriHOME concentration in plasma” value [2, 5] was 17 nM, the “9-HODE concentration in plasma” value [2, 5] was 210 nM and the “9-HOTrE concentration in plasma” value [2, 5] was 12 nM. For the same compound, the “9-oxo-ODE concentration in plasma” value [2, 5] was 38 nM, the “10(11)-EpDPE concentration in plasma” value [2, 5] was 3.9 nM and the “10,11-DiHDPE concentration in plasma” value [2, 5] was 0.62^* nM. The “10-HDHA concentration in plasma” value [2, 5] was 27^† nM, the “11(12)-EpETrE concentration in plasma” value [2, 5] was 2.6 nM and the “11,12-DiHETE concentration in plasma” value [2, 5] was 0.38^‡ nM. For the same compound, the “11,12-DiHETrE concentration in plasma” value [2, 5] was 2.0 nM, the “11-HDHA concentration in plasma” value [2, 5] was 0.91 nM and the “11-HETE concentration in plasma” value [2, 5] was 3.8^* nM. The “12(13)-EpODE concentration in plasma” value [2, 5] was 3.3 nM, the “12(13)-EpOME concentration in plasma” value [2, 5] was 48 nM and the “12,13-DiHODE concentration in plasma” value [2, 5] was 2.8 nM. The “12,13-DiHOME concentration in plasma” value [2, 5] was 110^* nM, the “12-HEPE concentration in plasma” value [2, 5] was 239^† nM and the “12-HETE concentration in plasma” value [2, 5] was 1700^† nM. For the same compound, the “13(14)-EpDPE concentration in plasma” value [2, 5] was 2.9 nM, the “13,14-DiHDPE concentration in plasma” value [2, 5] was 0.55^* nM and the “13,14-dihydro-15-keto-PGE1 concentration in plasma” value [2, 5] was 0.34^† nM. The “13,14dihydro-15-keto-PGF2α concentration in plasma” value [2, 5] was 2.1^‡ nM, the “13-HDHA concentration in plasma” value [2, 5] was 3.9^* nM and the “13-HODE concentration in plasma” value [2, 5] was 540 nM. For the same compound, the “13-HOTrE concentration in plasma” value [2, 5] was 61 nM, the “13-oxo-ODE concentration in plasma” value [2, 5] was 8.3 nM and the “14(15)-EpETE concentration in plasma” value [2, 5] was 0.18^* nM. The “14(15)-EpETrE concentration in plasma” value [2, 5] was 2.4 nM, the “14,15-DiHETE concentration in plasma” value [2, 5] was 0.36 nM and the “14,15-DiHETrE concentration in plasma” value [2, 5] was 2.5 nM. The “14-HDHA concentration in plasma” value [2, 5] was 800^† nM, the “15(16)-EpODE concentration in plasma” value [2, 5] was 2.9 nM and the “15(S)-HETrE concentration in plasma” value [2, 5] was 5.7^‡ nM. The “15,16-DiHODE concentration in plasma” value [2, 5] was 53 nM, the “15-HEPE concentration in plasma” value [2, 5] was 1.5^‡ nM and the “15-HETE concentration in plasma” value [2, 5] was 7.9^† nM. The “15-oxo-ETE concentration in plasma” value [2, 5] was 0.34 nM, the “16(17)-EpDPE concentration in plasma” value [2, 5] was 2.8 nM and the “16,17-DiHDPE concentration in plasma” value [2, 5] was 1.1^† nM. The “16-HDHA concentration in plasma” value [2, 5] was 1.1 nM, the “17(18)-EpETE concentration in plasma” value [2, 5] was 1.1 nM and the “17,18-DiHETE concentration in plasma” value [2, 5] was 1.8 nM. For the same compound, the “17-HDHA concentration in plasma” value [2, 5] was 39^† nM, the “18-HEPE concentration in plasma” value [2, 5] was 0.81 nM and the “19(20)-EpDPE concentration in plasma” value [2, 5] was 13 nM. For the same compound, the “19,20-DiHDPE concentration in plasma” value [2, 5] was 14 nM, the “20-HDHA concentration in plasma” value [2, 5] was 3.6 nM and the “20-HEPE concentration in plasma” value [2, 5] was 5.7^† nM. The “20-HETE concentration in plasma” value [2, 5] was 2.7^‡ nM, the “EKODE concentration in plasma” value [2, 5] was 16 nM and the “PGD2 concentration in plasma” value [2, 5] was 0.90 nM. The “PGE2 concentration in plasma” value [2, 5] was 1.6 nM, the “PGF1α concentration in plasma” value [2, 5] was 0.25^‡ nM and the “PGF2α concentration in plasma” value [2, 5] was 0.77^‡ nM. The “TXB2 concentration in plasma” value [2, 5] was 4.2 nM.
